Columns and labels:
[1] = system: Mycobacterium tuberculosis Erdman (autoluminescent); experiment: FIC50 (Loewe) at 50% inhibition (log2); higher = more antagonistic
Description: (§1)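 DiaMOND equipotent two-drug combination dose responses against autoluminescent M. tuberculosis Erdman in 8 in vitro models. Read-out is OD600, or luminescence for the intracellular and dormancy models, normalised to untreated wells. Hill-fit Einf, AUC25 and GRinf are potency metrics; FIC50 and FIC90 are Loewe-additivity fractional inhibitory concentrations, given as log2 (negative = synergy). Replicates are averaged.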

[2] = system: Mycobacterium tuberculosis Erdman (autoluminescent); experiment: AUC25, normalised area under dose response up to IC25 (fraction (0-1)); higher = more potent at low dose
Description: as §1

[3] = system: Mycobacterium tuberculosis Erdman (autoluminescent); experiment: FIC90 (Loewe) at 90% inhibition (log2); higher = more antagonistic
Description: as §1

[4] = system: Mycobacterium tuberculosis Erdman (autoluminescent); experiment: Einf, fitted maximum growth inhibition of combination (fraction); higher = stronger maximal inhibition
Description: as §1

[5] = system: Mycobacterium tuberculosis Erdman (autoluminescent); experiment: GRinf, maximum normalised growth rate inhibition (unitless (-1 to 1)); higher = less effect (negative = killing)
Description: as §1

NNC(=O)c1ccncc1 [isoniazid] + CO[C@H]1/C=C/O[C@@]2(C)Oc3c(C)c(O)c4c(O)c(c(/C=N/N5CCN(C)CC5)c(O)c4c3C2=O)NC(=O)/C(C)=C\C=C\[C@H](C)[C@H](O)[C@@H](C)[C@@H](O)[C@@H](C)[C@H](OC(C)=O)[C@@H]1C [rifampicin]
Conditions	AUC25, [2]	Einf, [4]	FIC50, [1]	FIC90, [3]	GRinf, [5]
in vitro model: acidic pH 5.7, time point: constant (~7 days, model-specific)	0.0799	0.91	0.156	–	-0.381
in vitro model: acidic pH 5.7, time point: terminal (~4-5 doublings, model-specific)	0.0614	0.99	0.263	0.0584	-0.3
in vitro model: intracellular J774, time point: constant = terminal	–	0.966	–	-0.336	-0.212

Conditions	AUC25, [2]	Einf, [4]	FIC50, [1]	FIC90, [3]	GRinf, [5]
in vitro model: butyrate, time point: constant (~7 days, model-specific)	0.1	0.932	0.279	0.359	-0.0416
in vitro model: butyrate, time point: terminal (~4-5 doublings, model-specific)	0.0861	0.973	0.0238	0.0846	-0.0152
in vitro model: cholesterol 0.05 mM, time point: constant (~7 days, model-specific)	0.107	0.655	0.41	–	0.0341
in vitro model: cholesterol 0.05 mM, time point: terminal (~4-5 doublings, model-specific)	0.0769	0.897	0.0977	0.49	-0.0891
in vitro model: cholesterol-high 0.2 mM, time point: constant (~7 days, model-specific)	0.0535	0.91	-0.107	–	-0.249
in vitro model: cholesterol-high 0.2 mM, time point: terminal (~4-5 doublings, model-specific)	0.0593	1	0.355	0.101	-0.696
in vitro model: dormancy (butyrate + nitrate, low O2), time point: constant (~7 days, model-specific)	0.0607	0.931	-0.181	-1.07	0.104
in vitro model: dormancy (butyrate + nitrate, low O2), time point: terminal (~4-5 doublings, model-specific)	0.0631	0.989	-0.539	-0.256	-0.205
in vitro model: standard 7H9 glycerol, time point: constant = terminal	0.0779	0.914	0.445	-0.093	0.103
in vitro model: valerate, time point: constant (~7 days, model-specific)	0.0388	0.866	0.511	–	0.0415
in vitro model: valerate, time point: terminal (~4-5 doublings, model-specific)	0.0262	0.943	0.396	0.119	0.032

NNC(=O)c1ccncc1 [isoniazid] + COc1c(N2C[C@@H]3CCCN[C@@H]3C2)c(F)cc2c(=O)c(C(=O)O)cn(C3CC3)c12 [moxifloxacin]
Conditions	AUC25, [2]	Einf, [4]	FIC50, [1]	FIC90, [3]	GRinf, [5]
in vitro model: acidic pH 5.7, time point: constant (~7 days, model-specific)	0.108	0.704	0.476	–	-0.263
in vitro model: acidic pH 5.7, time point: terminal (~4-5 doublings, model-specific)	0.0673	0.923	0.361	0.444	-0.118
in vitro model: intracellular J774, time point: constant = terminal	–	0.993	–	0.465	-0.405

Conditions	AUC25, [2]	Einf, [4]	FIC50, [1]	FIC90, [3]	GRinf, [5]
in vitro model: butyrate, time point: constant (~7 days, model-specific)	0.0638	0.926	0.0921	0.134	-0.0481
in vitro model: butyrate, time point: terminal (~4-5 doublings, model-specific)	0.0457	0.969	0.0505	-0.0232	-0.0694
in vitro model: cholesterol 0.05 mM, time point: constant (~7 days, model-specific)	0.121	0.756	0.0749	–	-0.309
in vitro model: cholesterol 0.05 mM, time point: terminal (~4-5 doublings, model-specific)	0.096	0.962	0.0269	0.468	-0.301
in vitro model: cholesterol-high 0.2 mM, time point: constant (~7 days, model-specific)	0.079	0.953	0.049	0.277	-0.524
in vitro model: cholesterol-high 0.2 mM, time point: terminal (~4-5 doublings, model-specific)	0.057	0.995	0.314	0.00349	-0.639
in vitro model: dormancy (butyrate + nitrate, low O2), time point: constant (~7 days, model-specific)	0.076	0.91	0.000113	-0.385	0.143
in vitro model: dormancy (butyrate + nitrate, low O2), time point: terminal (~4-5 doublings, model-specific)	0.0785	0.985	0.0985	0.553	-0.158
in vitro model: standard 7H9 glycerol, time point: constant = terminal	0.0762	0.981	0.317	0.332	-0.218
in vitro model: valerate, time point: constant (~7 days, model-specific)	0.0691	0.863	0.215	–	0.0468
in vitro model: valerate, time point: terminal (~4-5 doublings, model-specific)	0.0467	0.94	0.279	0.294	0.0344

NNC(=O)c1ccncc1 [isoniazid] + NC(=O)c1cnccn1 [pyrazinamide]
Conditions	AUC25, [2]	Einf, [4]	FIC50, [1]	FIC90, [3]	GRinf, [5]
in vitro model: acidic pH 5.7, time point: constant (~7 days, model-specific)	0.097	0.857	-0.176	–	-0.422
in vitro model: acidic pH 5.7, time point: terminal (~4-5 doublings, model-specific)	0.0846	0.977	0.19	-0.784	-0.338
in vitro model: intracellular J774, time point: constant = terminal	–	0.964	–	0.267	-0.218

Conditions	AUC25, [2]	Einf, [4]	FIC50, [1]	FIC90, [3]	GRinf, [5]
in vitro model: butyrate, time point: constant (~7 days, model-specific)	0.0844	0.931	-0.141	0.439	0.0223
in vitro model: butyrate, time point: terminal (~4-5 doublings, model-specific)	0.053	0.954	-0.11	-0.0985	0.0459
in vitro model: cholesterol 0.05 mM, time point: constant (~7 days, model-specific)	0.112	0.758	–	–	-0.252
in vitro model: cholesterol 0.05 mM, time point: terminal (~4-5 doublings, model-specific)	0.119	0.951	-0.117	–	-0.372
in vitro model: cholesterol-high 0.2 mM, time point: constant (~7 days, model-specific)	0.0915	0.908	0.321	–	-0.322
in vitro model: cholesterol-high 0.2 mM, time point: terminal (~4-5 doublings, model-specific)	0.0717	0.995	0.538	0.4	-0.664
in vitro model: dormancy (butyrate + nitrate, low O2), time point: constant (~7 days, model-specific)	0.0844	0.897	-0.543	-0.165	0.244
in vitro model: dormancy (butyrate + nitrate, low O2), time point: terminal (~4-5 doublings, model-specific)	0.0579	0.984	-0.16	-0.412	-0.119
in vitro model: standard 7H9 glycerol, time point: constant = terminal	0.0332	0.861	-0.124	–	0.248
in vitro model: valerate, time point: constant (~7 days, model-specific)	0.0637	0.78	-0.102	–	0.208
in vitro model: valerate, time point: terminal (~4-5 doublings, model-specific)	0.0551	0.839	0.196	0.67	0.173

NNC(=O)c1ccncc1 [isoniazid] + O=[N+]([O-])c1cn2c(n1)OC[C@@H](OCc1ccc(OC(F)(F)F)cc1)C2 [pretomanid]
Conditions	AUC25, [2]	Einf, [4]	FIC50, [1]	FIC90, [3]	GRinf, [5]
in vitro model: acidic pH 5.7, time point: constant (~7 days, model-specific)	0.13	0.866	0.312	–	-0.747
in vitro model: acidic pH 5.7, time point: terminal (~4-5 doublings, model-specific)	0.0878	0.99	0.274	0.597	-0.432
in vitro model: intracellular J774, time point: constant = terminal	–	1	–	0.496	-0.631

Conditions	AUC25, [2]	Einf, [4]	FIC50, [1]	FIC90, [3]	GRinf, [5]
in vitro model: butyrate, time point: constant (~7 days, model-specific)	0.0655	0.945	0.776	0.672	-0.0657
in vitro model: butyrate, time point: terminal (~4-5 doublings, model-specific)	0.0383	0.973	0.602	0.403	-0.0769
in vitro model: cholesterol 0.05 mM, time point: constant (~7 days, model-specific)	0.122	0.755	0.145	–	-0.201
in vitro model: cholesterol 0.05 mM, time point: terminal (~4-5 doublings, model-specific)	0.0915	0.922	5.18	0.199	-0.242
in vitro model: cholesterol-high 0.2 mM, time point: constant (~7 days, model-specific)	0.0893	0.875	0.379	–	-0.127
in vitro model: cholesterol-high 0.2 mM, time point: terminal (~4-5 doublings, model-specific)	0.0482	0.982	0.467	0.413	-0.542
in vitro model: dormancy (butyrate + nitrate, low O2), time point: constant (~7 days, model-specific)	0.0671	0.909	0.185	0.145	0.115
in vitro model: dormancy (butyrate + nitrate, low O2), time point: terminal (~4-5 doublings, model-specific)	0.0588	0.983	0.103	0.303	-0.198
in vitro model: standard 7H9 glycerol, time point: constant = terminal	0.0602	0.928	0.303	0.248	0.0614
in vitro model: valerate, time point: constant (~7 days, model-specific)	0.102	0.884	0.537	2.18	-0.208
in vitro model: valerate, time point: terminal (~4-5 doublings, model-specific)	0.0772	0.938	0.495	0.477	0.00535
